According to ChEMBL document CHEMBL1131655 (Bioorg Med Chem Lett, 1998):

Experiments:
[1] = biological target: T1, Adenosine receptor A1 (Homo sapiens) (UniProt P30542); assay: Percentage extracellular acidification rate was evaluated against human adenosine A1 receptor expressed in CHO-K1 cells; format: functional, cell-based
T1 sequence (whole entry): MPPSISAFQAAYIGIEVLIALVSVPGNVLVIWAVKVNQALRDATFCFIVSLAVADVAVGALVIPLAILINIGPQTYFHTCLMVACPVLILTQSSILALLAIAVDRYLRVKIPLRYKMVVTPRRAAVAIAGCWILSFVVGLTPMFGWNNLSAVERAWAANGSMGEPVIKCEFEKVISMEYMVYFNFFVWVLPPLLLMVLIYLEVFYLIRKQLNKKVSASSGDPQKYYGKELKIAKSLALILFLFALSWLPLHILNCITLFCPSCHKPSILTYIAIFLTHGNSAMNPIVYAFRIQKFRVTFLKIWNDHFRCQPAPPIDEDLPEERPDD

[2] = biological target: T1, Adenosine receptor A1 (Homo sapiens); assay: Emax for R-PIA against Human Adenosine A1 receptor
Adenosine receptor A1 [3] = biological target: T2, Adenosine receptor A1 (Homo sapiens, UniProt P30542); assay: Binding against Human Adenosine A1 receptor
T2 sequence (P30542 whole entry): T1 sequence (whole entry)

Adenosine receptor A1 [4] = biological target: T3, Adenosine receptor A1 (Rattus norvegicus, UniProt P25099); assay: Binding affinity against adenosine A1 receptor in rat brain using [3H]R-PIA; format: tissue-based
T3 sequence (P25099 whole entry): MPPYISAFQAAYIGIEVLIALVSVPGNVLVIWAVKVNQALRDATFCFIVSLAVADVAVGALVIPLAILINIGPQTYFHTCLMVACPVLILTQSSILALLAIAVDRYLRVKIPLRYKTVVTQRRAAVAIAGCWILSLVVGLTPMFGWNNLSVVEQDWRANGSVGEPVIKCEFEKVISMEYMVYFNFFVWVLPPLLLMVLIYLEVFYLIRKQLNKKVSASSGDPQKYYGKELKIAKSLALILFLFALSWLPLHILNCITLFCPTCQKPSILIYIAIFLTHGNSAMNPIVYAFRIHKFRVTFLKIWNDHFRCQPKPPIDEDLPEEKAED

ECAR [1] [%]	Emax [2] [%]	EC50 (Adenosine receptor A1 [3]) [µM]	Ki (Adenosine receptor A1 [4]) [µM]	Structure (SMILES)
113	–	–	–	OC[C@@H]1OC(n2cnc3c2N=CN2C[C@@H](c4ccccc4)N=C32)[C@@H](O)[C@H]1O (stereo partly drawn)
106	–	–	–	OC[C@@H]1OC(n2cnc3c2N=CN2C[C@H](c4ccccc4)N=C32)[C@@H](O)[C@H]1O (stereo partly drawn)
122	90	100	1.02	NC1=Nc2c(ncn2C2O[C@@H](CO)[C@H](O)[C@@H]2O)C2=N[C@H](c3ccccc3)CN12 (stereo partly drawn)
117	–	–	0.61	NC1=Nc2c(ncn2C2O[C@@H](CO)[C@H](O)[C@@H]2O)C2=N[C@@H](c3ccccc3)CN12 (stereo partly drawn)
